Measured values published in the NIST ThermoML archive (doi:10.1016/j.fluid.2016.08.002).

Assay: xn = mol fraction of the nth substance listed
Details: Gas, Vibrating tube method

S [hydrogen sulfide] + C
Details	mass density [kg/m3]
273.05 K, 6535 kPa, x2 = 0.8197	73.36
273.05 K, 19490 kPa, x2 = 0.8197	268.43
273.05 K, 20545 kPa, x2 = 0.8197	276.64
273.05 K, 27474 kPa, x2 = 0.714	379.67
273.05 K, 29015 kPa, x2 = 0.714	385.58
273.06 K, 1024 kPa, x2 = 0.8197	8.86
273.06 K, 1546 kPa, x2 = 0.8197	13.54
273.06 K, 1998 kPa, x2 = 0.8197	17.83
273.06 K, 3515 kPa, x2 = 0.714	41.26
273.06 K, 4568 kPa, x2 = 0.8197	45.89
273.06 K, 7007 kPa, x2 = 0.8197	80.78
273.06 K, 7503 kPa, x2 = 0.8197	88.86
273.06 K, 19898 kPa, x2 = 0.8197	271.74
273.06 K, 27956 kPa, x2 = 0.714	381.54
273.07 K, 2472 kPa, x2 = 0.8197	22.64
273.07 K, 2991 kPa, x2 = 0.714	34.29
273.07 K, 4037 kPa, x2 = 0.8197	39.48
273.07 K, 19004 kPa, x2 = 0.8197	264.22
273.07 K, 21088 kPa, x2 = 0.8197	280.47
273.07 K, 22026 kPa, x2 = 0.8197	286.58
273.08 K, 3006 kPa, x2 = 0.8197	28.12
273.08 K, 3496 kPa, x2 = 0.8197	33.34
273.08 K, 8037 kPa, x2 = 0.8197	97.86
273.08 K, 17450 kPa, x2 = 0.714	319.61
273.08 K, 17522 kPa, x2 = 0.8197	249.57
273.08 K, 18504 kPa, x2 = 0.8197	259.61
273.08 K, 21490 kPa, x2 = 0.8197	283.16
273.09 K, 8509 kPa, x2 = 0.8197	106.04
273.09 K, 8697 kPa, x2 = 0.8197	109.34
273.09 K, 18521 kPa, x2 = 0.714	328.7
273.1 K, 18017 kPa, x2 = 0.8197	254.8
273.1 K, 18931 kPa, x2 = 0.714	331.97
273.1 K, 22561 kPa, x2 = 0.8197	289.86
273.1 K, 28471 kPa, x2 = 0.714	383.53
273.11 K, 9417 kPa, x2 = 0.8197	122.17
273.11 K, 10159 kPa, x2 = 0.8197	135.6
273.11 K, 14299 kPa, x2 = 0.8197	207.01
273.11 K, 17004 kPa, x2 = 0.8197	243.74
273.11 K, 17956 kPa, x2 = 0.714	324.07
273.11 K, 23102 kPa, x2 = 0.8197	293.06
273.12 K, 23507 kPa, x2 = 0.8197	295.4
273.13 K, 10896 kPa, x2 = 0.8197	148.97
273.13 K, 11490 kPa, x2 = 0.8197	159.68
273.13 K, 12024 kPa, x2 = 0.8197	169.16
273.13 K, 13513 kPa, x2 = 0.8197	194.52
273.13 K, 14007 kPa, x2 = 0.8197	202.45
273.13 K, 14904 kPa, x2 = 0.8197	216.11
273.13 K, 15510 kPa, x2 = 0.8197	224.73
273.13 K, 16041 kPa, x2 = 0.8197	231.85
273.13 K, 16504 kPa, x2 = 0.8197	237.74
273.13 K, 24081 kPa, x2 = 0.8197	298.69
273.13 K, 27492 kPa, x2 = 0.8197	316.71
273.13 K, 28026 kPa, x2 = 0.8197	319.37
273.13 K, 28568 kPa, x2 = 0.8197	321.92
273.13 K, 29088 kPa, x2 = 0.8197	324.13
273.13 K, 29546 kPa, x2 = 0.8197	325.75
273.13 K, 29999 kPa, x2 = 0.8197	327.01
273.14 K, 10580 kPa, x2 = 0.8197	143.25
273.14 K, 21825 kPa, x2 = 0.714	351.99
273.14 K, 24511 kPa, x2 = 0.8197	301.13
273.14 K, 26076 kPa, x2 = 0.8197	309.49
273.14 K, 26577 kPa, x2 = 0.8197	312.08
273.14 K, 26982 kPa, x2 = 0.8197	314.11
273.15 K, 25182 kPa, x2 = 0.8197	304.96
273.15 K, 25661 kPa, x2 = 0.8197	307.41
273.16 K, 13305 kPa, x2 = 0.8197	191.11
